Values quoted from earlier work, collected in patent US20120172289A1, “MULTIFUNCTIONAL GLYCOPEPTIDE ANTIBIOTIC DERIVATIVES FOR FLUORESCENT IMAGING AND PHOTOACTIVE ANTIMICROBIAL THERAPY” (NANYANG TECHNOLOGICAL UNIVERSITY, priority 2010, published 2012).

Tested on: D-Ala-D-Lac
Conditions: mutation of peptidoglycan sequence in VRE

## CN[C@H](CC(C)C)C(=O)N[C@H]1C(=O)N[C@@H](CC(N)=O)C(=O)N[C@H]2C(=O)N[C@H]3C(=O)N[C@H](C(=O)N[C@H](C(=O)O)c4cc(O)cc(O)c4-c4cc3ccc4O)[C@H](O)c3ccc(c(Cl)c3)Oc3cc2cc(c3O[C@@H]2O[C@H](CO)[C@@H](O)[C@H](O)[C@H]2O[C@H]2C[C@](C)(N)[C@H](O)[C@H](C)O2)Oc2ccc(cc2Cl)[C@H]1O [Vancomycin]
  decrease of binding affinity, D-Ala-D-Ala to D-Ala-D-Lac: ~10^3 times
